Test results taken from ChEMBL document CHEMBL5653631, “A Potent and Selective ULK1 Inhibitor Suppresses Autophagy and Sensitizes Cancer Cells to Nutrient Stress” (iScience, 2018).

How the values were obtained:
[1] = target: SRSF protein kinase 1 (Homo sapiens) (UniProt Q96SB4); test: Inhibition of human recombinant SRPK1 at 40 nM related to control ULK1
[2] = target: T1, Testis-specific serine/threonine-protein kinase 3 (Homo sapiens) (UniProt Q96PN8); test: Inhibition of human recombinant TSSK3 at 40 nM in presence of ATP by radiometric assay relative to control
T1 sequence (whole entry): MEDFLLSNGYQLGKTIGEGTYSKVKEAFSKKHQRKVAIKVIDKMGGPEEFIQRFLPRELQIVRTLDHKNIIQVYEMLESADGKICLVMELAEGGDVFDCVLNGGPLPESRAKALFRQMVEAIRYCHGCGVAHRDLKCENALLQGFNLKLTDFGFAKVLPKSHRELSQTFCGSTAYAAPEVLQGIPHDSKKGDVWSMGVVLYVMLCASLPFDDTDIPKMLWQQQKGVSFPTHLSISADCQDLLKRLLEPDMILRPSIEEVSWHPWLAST

[3] = target: Tau-tubulin kinase 1 (Homo sapiens) (UniProt Q5TCY1); test: Inhibition of human recombinant TTBK1 at 500 nM in presence of ATP by radiometric assay relative to control
[4] = target: Serine/threonine-protein kinase VRK2 (Homo sapiens) (UniProt Q86Y07); test: Inhibition of human recombinant VRK2 at 500 nM in presence of ATP by radiometric assay relative to control
[5] = target: T2, MAP/microtubule affinity-regulating kinase 4 (Homo sapiens) (UniProt Q96L34); test: Inhibition of human recombinant MARK4 at 500 nM related to control ULK1
T2 sequence (whole entry): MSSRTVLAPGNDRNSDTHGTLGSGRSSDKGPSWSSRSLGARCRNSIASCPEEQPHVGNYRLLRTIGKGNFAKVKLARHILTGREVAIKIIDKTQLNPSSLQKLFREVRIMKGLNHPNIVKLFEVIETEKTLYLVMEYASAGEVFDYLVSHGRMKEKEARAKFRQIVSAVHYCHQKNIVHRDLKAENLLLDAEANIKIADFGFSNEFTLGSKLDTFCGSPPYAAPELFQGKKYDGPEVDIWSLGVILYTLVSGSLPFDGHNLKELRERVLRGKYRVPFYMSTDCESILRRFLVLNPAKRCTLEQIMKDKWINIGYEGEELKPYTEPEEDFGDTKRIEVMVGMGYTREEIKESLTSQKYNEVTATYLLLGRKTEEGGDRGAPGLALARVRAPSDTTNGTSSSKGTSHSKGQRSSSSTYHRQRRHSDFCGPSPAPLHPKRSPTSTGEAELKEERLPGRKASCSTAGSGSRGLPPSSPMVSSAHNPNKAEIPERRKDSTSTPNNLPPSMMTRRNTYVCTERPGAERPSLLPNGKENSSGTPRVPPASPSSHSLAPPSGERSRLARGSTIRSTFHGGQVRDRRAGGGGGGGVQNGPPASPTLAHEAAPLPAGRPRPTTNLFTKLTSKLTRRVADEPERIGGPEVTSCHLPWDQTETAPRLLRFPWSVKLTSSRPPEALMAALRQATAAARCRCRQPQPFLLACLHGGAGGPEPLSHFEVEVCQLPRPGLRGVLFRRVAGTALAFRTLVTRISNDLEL

[6] = target: T3, Tyrosine-protein kinase ZAP-70 (Homo sapiens) (UniProt P43403); test: Inhibition of human recombinant ZAP70 at 500 nM related to control ULK1
T3 sequence (whole entry): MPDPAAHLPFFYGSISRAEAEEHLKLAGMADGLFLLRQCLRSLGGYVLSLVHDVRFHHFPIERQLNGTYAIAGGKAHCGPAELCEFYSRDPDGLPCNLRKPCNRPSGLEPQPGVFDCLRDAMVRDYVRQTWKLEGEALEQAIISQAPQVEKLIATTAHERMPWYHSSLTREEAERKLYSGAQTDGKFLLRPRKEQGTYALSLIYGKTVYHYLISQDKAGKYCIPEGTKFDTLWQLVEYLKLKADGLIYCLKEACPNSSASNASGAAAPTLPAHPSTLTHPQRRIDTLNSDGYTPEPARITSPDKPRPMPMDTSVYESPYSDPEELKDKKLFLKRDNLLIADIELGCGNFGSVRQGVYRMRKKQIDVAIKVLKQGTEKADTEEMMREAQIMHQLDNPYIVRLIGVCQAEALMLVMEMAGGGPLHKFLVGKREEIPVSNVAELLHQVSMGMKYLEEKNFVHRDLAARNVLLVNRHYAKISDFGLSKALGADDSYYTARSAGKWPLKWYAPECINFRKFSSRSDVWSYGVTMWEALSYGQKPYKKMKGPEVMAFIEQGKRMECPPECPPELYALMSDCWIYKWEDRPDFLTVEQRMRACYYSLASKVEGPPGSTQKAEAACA

[7] = target: T4, Myotonin-protein kinase (Homo sapiens) (UniProt Q09013); test: Inhibition of human recombinant DMPK1 at 500 nM related to control ULK1
T4 sequence (whole entry): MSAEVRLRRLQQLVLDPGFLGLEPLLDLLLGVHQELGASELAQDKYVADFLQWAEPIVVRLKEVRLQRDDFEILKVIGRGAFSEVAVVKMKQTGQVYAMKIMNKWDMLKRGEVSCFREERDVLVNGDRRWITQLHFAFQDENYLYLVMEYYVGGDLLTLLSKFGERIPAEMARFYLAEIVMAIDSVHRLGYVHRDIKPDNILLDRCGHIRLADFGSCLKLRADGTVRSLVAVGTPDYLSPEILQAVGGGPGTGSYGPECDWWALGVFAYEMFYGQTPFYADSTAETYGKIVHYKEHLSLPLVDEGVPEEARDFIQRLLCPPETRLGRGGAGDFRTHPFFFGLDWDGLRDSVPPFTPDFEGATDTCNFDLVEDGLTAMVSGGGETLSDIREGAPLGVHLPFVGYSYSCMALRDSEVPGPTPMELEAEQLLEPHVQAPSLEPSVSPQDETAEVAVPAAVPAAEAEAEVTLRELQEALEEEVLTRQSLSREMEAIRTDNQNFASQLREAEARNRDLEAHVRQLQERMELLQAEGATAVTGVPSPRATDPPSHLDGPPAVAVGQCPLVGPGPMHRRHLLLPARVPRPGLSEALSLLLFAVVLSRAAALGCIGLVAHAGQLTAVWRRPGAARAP

[8] = target: Serine/threonine-protein kinase Chk2 (Homo sapiens) (UniProt O96017); test: Inhibition of human recombinant CHK2 at 15 nM related to control ULK1
[9] = target: Mitogen-activated protein kinase 10 (Homo sapiens) (UniProt P53779); test: Inhibition of human recombinant JNK3 at 15 nM in presence of ATP by radiometric assay relative to control
Chain of Mitogen-activated protein kinase 10 (Homo sapiens) (P53779 whole entry): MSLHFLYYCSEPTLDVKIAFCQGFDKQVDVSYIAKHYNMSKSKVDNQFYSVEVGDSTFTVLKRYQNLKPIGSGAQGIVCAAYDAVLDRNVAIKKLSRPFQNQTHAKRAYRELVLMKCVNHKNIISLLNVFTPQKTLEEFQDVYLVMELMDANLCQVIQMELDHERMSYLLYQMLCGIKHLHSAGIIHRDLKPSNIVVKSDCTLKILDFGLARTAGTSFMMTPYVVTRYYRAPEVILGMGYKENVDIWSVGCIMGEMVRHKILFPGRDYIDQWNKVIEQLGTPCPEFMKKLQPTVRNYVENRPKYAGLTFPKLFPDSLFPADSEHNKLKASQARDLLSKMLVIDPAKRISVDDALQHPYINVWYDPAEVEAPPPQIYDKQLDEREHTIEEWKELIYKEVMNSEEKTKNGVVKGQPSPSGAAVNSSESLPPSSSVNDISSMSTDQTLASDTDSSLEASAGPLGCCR

Chain of Tau-tubulin kinase 1 (Homo sapiens) (Q5TCY1 whole entry): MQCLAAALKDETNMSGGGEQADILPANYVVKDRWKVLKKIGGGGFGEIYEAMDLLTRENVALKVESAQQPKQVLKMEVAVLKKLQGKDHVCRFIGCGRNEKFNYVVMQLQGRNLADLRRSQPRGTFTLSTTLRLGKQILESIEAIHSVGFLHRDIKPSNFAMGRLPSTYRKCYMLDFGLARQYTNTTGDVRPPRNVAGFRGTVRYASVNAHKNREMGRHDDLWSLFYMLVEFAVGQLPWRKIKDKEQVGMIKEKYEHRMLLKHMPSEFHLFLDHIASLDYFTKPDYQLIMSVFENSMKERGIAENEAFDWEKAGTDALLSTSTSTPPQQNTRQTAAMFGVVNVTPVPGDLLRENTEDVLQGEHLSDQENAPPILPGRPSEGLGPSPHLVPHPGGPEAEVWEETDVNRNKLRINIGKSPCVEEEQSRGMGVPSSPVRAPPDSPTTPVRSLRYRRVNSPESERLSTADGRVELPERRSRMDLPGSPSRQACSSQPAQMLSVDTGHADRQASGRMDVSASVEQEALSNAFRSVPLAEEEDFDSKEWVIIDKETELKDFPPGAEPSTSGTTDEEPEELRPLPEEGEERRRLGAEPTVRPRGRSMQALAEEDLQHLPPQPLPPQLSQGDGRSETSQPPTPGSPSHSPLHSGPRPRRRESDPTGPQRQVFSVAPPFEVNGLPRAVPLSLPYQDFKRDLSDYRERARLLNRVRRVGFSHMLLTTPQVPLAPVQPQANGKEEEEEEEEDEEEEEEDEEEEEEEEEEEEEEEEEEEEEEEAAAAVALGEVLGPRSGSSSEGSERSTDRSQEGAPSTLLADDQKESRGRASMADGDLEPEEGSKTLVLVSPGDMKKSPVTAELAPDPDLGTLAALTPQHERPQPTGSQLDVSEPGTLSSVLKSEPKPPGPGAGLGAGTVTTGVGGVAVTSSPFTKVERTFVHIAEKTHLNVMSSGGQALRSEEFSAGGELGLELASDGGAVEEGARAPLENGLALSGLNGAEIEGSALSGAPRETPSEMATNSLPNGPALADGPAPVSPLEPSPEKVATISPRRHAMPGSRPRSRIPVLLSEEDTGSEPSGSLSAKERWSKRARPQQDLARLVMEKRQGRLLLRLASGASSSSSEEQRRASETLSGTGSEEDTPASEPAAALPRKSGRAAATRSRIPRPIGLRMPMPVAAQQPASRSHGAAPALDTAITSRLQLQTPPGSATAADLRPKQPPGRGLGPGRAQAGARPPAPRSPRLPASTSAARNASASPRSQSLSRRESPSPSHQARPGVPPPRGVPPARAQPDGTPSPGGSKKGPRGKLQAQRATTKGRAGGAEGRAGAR
Chain of Serine/threonine-protein kinase Chk2 (Homo sapiens) (O96017 whole entry): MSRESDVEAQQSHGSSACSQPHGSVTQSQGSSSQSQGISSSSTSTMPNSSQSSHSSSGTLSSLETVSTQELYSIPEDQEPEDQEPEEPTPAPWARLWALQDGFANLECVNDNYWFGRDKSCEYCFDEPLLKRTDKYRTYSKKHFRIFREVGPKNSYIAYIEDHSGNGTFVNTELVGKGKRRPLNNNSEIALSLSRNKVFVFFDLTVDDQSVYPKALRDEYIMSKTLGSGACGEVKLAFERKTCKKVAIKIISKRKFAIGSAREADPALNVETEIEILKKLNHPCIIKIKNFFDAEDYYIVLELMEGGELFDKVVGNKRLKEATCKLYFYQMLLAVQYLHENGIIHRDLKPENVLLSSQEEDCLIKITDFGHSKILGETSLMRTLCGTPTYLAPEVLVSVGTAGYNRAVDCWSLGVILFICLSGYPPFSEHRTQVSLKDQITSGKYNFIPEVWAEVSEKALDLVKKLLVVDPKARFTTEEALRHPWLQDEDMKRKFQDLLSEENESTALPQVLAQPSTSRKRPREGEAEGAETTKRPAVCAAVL
Chain of Serine/threonine-protein kinase VRK2 (Homo sapiens) (Q86Y07 whole entry): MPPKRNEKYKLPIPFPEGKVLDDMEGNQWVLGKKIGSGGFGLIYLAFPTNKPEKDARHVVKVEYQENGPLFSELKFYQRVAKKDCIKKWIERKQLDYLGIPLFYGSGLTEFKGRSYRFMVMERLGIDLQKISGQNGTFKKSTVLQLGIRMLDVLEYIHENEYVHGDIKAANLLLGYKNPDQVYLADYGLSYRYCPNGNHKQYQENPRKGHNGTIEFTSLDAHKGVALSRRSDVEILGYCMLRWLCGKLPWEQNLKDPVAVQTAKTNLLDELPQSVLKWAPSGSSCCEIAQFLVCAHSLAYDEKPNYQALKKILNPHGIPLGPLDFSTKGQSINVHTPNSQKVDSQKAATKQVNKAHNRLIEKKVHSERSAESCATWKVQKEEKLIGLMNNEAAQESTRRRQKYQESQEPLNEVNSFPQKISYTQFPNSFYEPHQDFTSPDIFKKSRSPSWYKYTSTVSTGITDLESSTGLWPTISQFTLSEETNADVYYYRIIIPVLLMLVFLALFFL
Chain of SRSF protein kinase 1 (Homo sapiens) (Q96SB4 whole entry): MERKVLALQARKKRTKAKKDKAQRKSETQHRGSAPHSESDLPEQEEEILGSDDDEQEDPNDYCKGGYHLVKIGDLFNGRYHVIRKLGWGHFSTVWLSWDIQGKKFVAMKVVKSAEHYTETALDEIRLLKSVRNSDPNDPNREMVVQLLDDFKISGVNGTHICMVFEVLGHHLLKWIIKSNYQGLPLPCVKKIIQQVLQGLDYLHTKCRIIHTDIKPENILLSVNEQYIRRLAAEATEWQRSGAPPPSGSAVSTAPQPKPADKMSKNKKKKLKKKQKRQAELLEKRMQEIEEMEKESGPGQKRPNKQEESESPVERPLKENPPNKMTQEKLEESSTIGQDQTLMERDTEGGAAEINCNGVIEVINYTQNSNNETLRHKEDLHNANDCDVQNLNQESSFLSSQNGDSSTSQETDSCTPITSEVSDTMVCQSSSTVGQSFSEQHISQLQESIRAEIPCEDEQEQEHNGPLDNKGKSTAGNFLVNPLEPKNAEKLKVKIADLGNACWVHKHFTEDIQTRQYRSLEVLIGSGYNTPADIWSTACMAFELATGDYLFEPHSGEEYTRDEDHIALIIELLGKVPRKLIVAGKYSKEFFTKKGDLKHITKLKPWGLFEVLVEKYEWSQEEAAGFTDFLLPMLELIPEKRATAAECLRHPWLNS

O=C(N[C@@H](C1CC1)C(F)(F)F)c1cc(-c2cnn3cc(-c4ccc(F)cc4)cnc23)cs1
fold change (FC) [1]: 0.14 | inhibition [2]: 0%

CNC(=O)c1ccccc1Oc1nc(Nc2cc(OC)c(OC)c(OC)c2)ncc1Br
inhibition [3]: 1% | inhibition [4]: 23% | fold change (FC) [5]: 0.78 | fold change (FC) [6]: 0.01 | fold change (FC) [7]: 0

CC(C)[C@H](NC(=O)c1cc(-c2cnn3cc(-c4ccc(OCCN5CCCCC5)cc4)cnc23)cs1)C(F)(F)F
fold change (FC) [8]: 0 | inhibition [9]: 7%
